Assay results from patent publication US20070128217A1 (priority 2003, published 2007).

Key:
[1] = test system: recombinant human anti-SARS-CoV antibody 03-018; format: binding; set-up: Binding of antibody 03-018 to linear peptides of the N protein of SARS-CoV Urbani / Binding of antibody 03-018 to looped/cyclic peptides of the N protein of SARS-CoV Urbani: unit not given here
[2] = test system: rabbit serum obtained by immunizing a rabbit with the SARS-CoV strain Frankfurt 1; format: binding; set-up: Binding of a rabbit serum to linear peptides / Binding of a rabbit serum to looped peptides / Rabbit serum linear peptides / Rabbit serum looped peptides / Binding of a rabbit serum to linear peptides of protein N of SARS-CoV Urbani (Rabbit serum linear peptides) / Binding of a rabbit serum to looped/cyclic peptides of protein N of SARS-CoV Urbani (Rabbit serum looped peptides): unit not given here
[3] = test system: antibodies in sera from SARS patients (sera 1a, 1b, 2, 6, 37, 62, London, SARS-yellow, SARS-green); format: binding, human; set-up: Binding of serum 6 to linear peptides of protein X1 of SARS-CoV Urbani / Binding of serum 37 to linear peptides of protein X1 of SARS-CoV Urbani / Binding of serum 6 to looped/cyclic peptide (PEPSCAN-ELISA) / Binding of serum 37 to looped/cyclic peptide (PEPSCAN-ELISA) / Binding of serum 37 to looped/cyclic peptides of protein X1 of SARS-CoV Urbani / Binding of serum 6 to linear peptides of protein X2 / Binding of serum 37 to linear peptides of protein X2 / Binding of serum 37 to looped/cyclic peptides of protein X2 of SARS-CoV Urbani / Binding of serum 6 to linear peptides of protein M of SARS-CoV Urbani / Binding of serum 37 to linear peptides of protein M of SARS-CoV Urbani / Binding of serum 6 to looped/cyclic peptides of protein M of SARS-CoV Urbani / Binding of serum 37 to looped/cyclic peptides of protein M of SARS-CoV Urbani / Binding of serum 6 to linear peptides of protein X3 of SARS-CoV Urbani / Binding of serum 37 to linear peptides of protein X3 of SARS-CoV Urbani / Binding of serum 37 to looped/cyclic peptides of protein X3 of SARS-CoV Urbani / Binding of serum 6 to linear peptides of protein X4 of SARS-CoV Urbani / Binding of serum 37 to linear peptides of protein X4 of SARS-CoV Urbani / Binding of serum 37 to looped/cyclic peptides of protein X4 of SARS-CoV Urbani / Binding of serum 6 to linear peptides of protein X5 of SARS-CoV Urbani / Binding of serum 37 to linear peptides of protein X5 of SARS-CoV Urbani / Binding of serum 37 to looped/cyclic peptides of protein X5 of SARS-CoV Urbani / Binding of serum 6 to linear peptides of protein N of SARS-CoV Urbani / Binding of serum 37 to linear peptides of protein N of SARS-CoV Urbani / Binding of serum 6 to linear peptide (PEPSCAN-ELISA) / Binding of serum 1a to looped/cyclic peptides of protein N of SARS-CoV Urbani / Binding of serum 1b to looped/cyclic peptides of protein N of SARS-CoV Urbani / Binding of serum 2 to looped/cyclic peptides of protein N of SARS-CoV Urbani / Binding of serum 6 to looped/cyclic peptides of protein N of SARS-CoV Urbani / Binding of serum 37 to looped/cyclic peptides of protein N of SARS-CoV Urbani / Binding of serum 62 to looped/cyclic peptides of protein N of SARS-CoV Urbani / Binding of serum London to looped/cyclic peptides of protein N of SARS-CoV Urbani / Binding of serum SARS-green to looped/cyclic peptides of protein N of SARS-CoV Urbani: unit not given here
[4] = test system: control sera (pooled serum of ten healthy LUMC hospital workers; commercial negative donor pooled serum from the Dutch bloodbank); format: binding, human; set-up: Binding of Control serum LUMC to linear peptides / Binding of Control serum Blood-bank to linear peptides / Binding of Control serum LUMC to looped peptides / Binding of Control Serum Blood-Bank to Looped peptides / Binding of Control serum LUMC to linear peptides of the protein M of SARS-CoV Urbani / Binding of Control serum Blood-bank to linear peptides of the protein M of SARS-CoV Urbani / Binding of Control serum LUMC to looped peptides of the protein M of SARS-CoV Urbani / Binding of Control Serum Blood-Bank to Looped peptides of the protein M of SARS-CoV Urbani: unit not given here

Row | Sequence | Binding of antibody 03-018 to linear peptides of the N protein of SARS-CoV Urbani [1] | Binding of antibody 03-018 to looped/cyclic peptides of the N protein of SARS-CoV Urbani [1] | Binding of a rabbit serum to linear peptides of protein N of SARS-CoV Urbani (Rabbit serum linear peptides) [2] | Binding of a rabbit serum to looped/cyclic peptides of protein N of SARS-CoV Urbani (Rabbit serum looped peptides) [2] | Binding of serum 1a to linear peptide (PEPSCAN-ELISA) [3] | Binding of serum 1a to looped/cyclic peptides of protein N of SARS-CoV Urbani [3] | Binding of serum 1b to linear peptide (PEPSCAN-ELISA) [3] | Binding of serum 1b to looped/cyclic peptides of protein N of SARS-CoV Urbani [3] | Binding of serum 2 to linear peptide (PEPSCAN-ELISA) [3] | Binding of serum 2 to looped/cyclic peptides of protein N of SARS-CoV Urbani [3] | Binding of serum 6 to linear peptide (PEPSCAN-ELISA) [3] | Binding of serum 6 to looped/cyclic peptides of protein N of SARS-CoV Urbani [3] | Binding of serum 37 to linear peptide (PEPSCAN-ELISA) [3] | Binding of serum 37 to looped/cyclic peptides of protein N of SARS-CoV Urbani [3] | Binding of serum 62 to linear peptide (PEPSCAN-ELISA) [3] | Binding of serum 62 to looped/cyclic peptides of protein N of SARS-CoV Urbani [3] | Binding of serum London to linear peptide (PEPSCAN-ELISA) [3] | Binding of serum London to looped/cyclic peptides of protein N of SARS-CoV Urbani [3] | Binding of serum SARS-green to looped/cyclic peptides of protein N of SARS-CoV Urbani [3] | Binding of serum SARS-yellow to looped/cyclic peptides of protein N of SARS-CoV Urbani [3] | other results
1 | ASKKPRQKRTATKQY | 0.1 | 0.2 | 0.2 | 0.4 | 0.2 | 0.3 | 0.1 | 0.1 | 0.3 | 0.3 | 0.2 | 0.2 | 0.7 | 0.5 | 0.6 | 0.5 | 0.5 | 0.4 | 0.1 | 0.2 | Binding of serum SARS-green to linear peptide (PEPSCAN-ELISA) [3]: 0.3; Binding of serum SARS-yellow to linear peptide (PEPSCAN-ELISA) [3]: 0.5; Binding of Control Serum Blood-Bank to Looped peptides [4]: 0.6; Binding of Control serum Blood-bank to linear peptides [4]: 0.7; Binding of Control serum LUMC to linear peptides [4]: 0.6; Binding of Control serum LUMC to looped peptides [4]: 0.5
2 | ASSRSSSRSRGNSRN | 0.1 | 0.2 | 0.3 | 0.7 | 0.2 | 0.3 | 0.1 | 0.2 | 0.2 | 0.4 | 0.2 | 0.3 | 0.6 | 0.6 | 0.5 | 0.5 | 0.5 | 0.4 | 0.2 | 0.4 | Binding of serum SARS-green to linear peptide (PEPSCAN-ELISA) [3]: 0.3; Binding of serum SARS-yellow to linear peptide (PEPSCAN-ELISA) [3]: 0.7; Binding of Control Serum Blood-Bank to Looped peptides [4]: 0.6; Binding of Control serum Blood-bank to linear peptides [4]: 0.6; Binding of Control serum LUMC to linear peptides [4]: 0.7; Binding of Control serum LUMC to looped peptides [4]: 0.6
3 | ATKQYNVTQAFGRRG | 0.1 | 0.3 |  |  | 0.3 | 0.4 | 0.2 | 0.3 | 0.2 | 0.5 | 0.2 | 0.5 | 0.7 | 0.7 | 0.6 | 0.7 | 0.5 | 1.2 | 0.2 | 0.8 | Recognition of the peptide by the rabbit serum [2]: recognized; Binding of serum SARS-green to linear peptide (PEPSCAN-ELISA) [3]: 0.3; Binding of serum SARS-yellow to linear peptide (PEPSCAN-ELISA) [3]: 0.8; Binding of Control Serum Blood-Bank to Looped peptides [4]: 0.8; Binding of Control serum Blood-bank to linear peptides [4]: 0.9; Binding of Control serum LUMC to linear peptides [4]: 0.8; Binding of Control serum LUMC to looped peptides [4]: 0.8
4 | AYKTFPPTEPKKDKK | 0.1 | 0.1 | 0.2 | 0.0 |  | 0.1 |  | 0.1 |  | 0.2 |  | 0.0 |  | 0.2 |  | 0.1 |  | 0.1 | 0.0 | 0.0 | Binding of serum 1a to linear peptides of protein N of SARS-CoV Urbani [3]: 0.2; Binding of serum 1b to linear peptides of protein N of SARS-CoV Urbani [3]: 0.1; Binding of serum 2 to linear peptides of protein N of SARS-CoV Urbani [3]: 0.3; Binding of serum 6 to linear peptides of protein N of SARS-CoV Urbani [3]: 0.2; Binding of serum 37 to linear peptides of protein N of SARS-CoV Urbani [3]: 0.7; Binding of serum 62 to linear peptides of protein N of SARS-CoV Urbani [3]: 0.8; Binding of serum London to linear peptides of protein N of SARS-CoV Urbani [3]: 0.6; Binding of serum SARS-green to linear peptides of protein N of SARS-CoV Urbani [3]: 0.3; Binding of serum SARS-yellow to linear peptides of protein N of SARS-CoV Urbani [3]: 0.7; Control Serum Blood-Bank Looped peptides [4]: 0.3; Control serum Blood-bank linear peptides [4]: 0.7; Control serum LUMC linear peptides [4]: 0.6; Control serum LUMC looped peptides [4]: 0.1
